The text below walks through data of paper PMC3888718, “F-18 Labeled Vasoactive Intestinal Peptide Analogue in the PET Imaging of Colon Carcinoma in Nude Mice” (BioMed Research International, 2013).

Like-named read-outs stand apart in the source and are kept apart here. Where a SMILES comes first, the peptide text is derived from it. The star is where a group is joined. Benzoyl(4-F) = O=C(c1ccc(F)cc1)*

In data set [1] the test system is colon carcinoma cells LS174T. The note with it: mouse, in vivo; cited from earlier work. The text has this: Like other neuropeptides, VIP is quickly metabolized in liver and excreted from kidneys. Given this, when VIP is to be used as an imaging agent, chemical modification of its structure is mandatory to extend the biological half-life in order to meet the imaging requirement. […] Pallela et al. labeled VIP analogue (TP3654) by ^99mTc and conducted animal distribution and imaging tests in nude mice transpla ...

Data set [2] in a line: micro-PET imaging in C26 tumor bearing mice. Format: in vivo. Conditions: nude mice, tumor and muscle, total radioactivity, micro-PET; for tissue to tissue ratio at 1 h: 60 min after injection. Here is the method:
(§1) C26 tumor bearing mice were obtained by right subaxillary implantation and were used in PET imaging test when the tumor had grown to the size of about 1 cm. PET imaging test in small animals was performed on a micro-PET R4 scanner (Concorde Microsystems, Siemens, Germany). After sodium pentobarbital anesthesia, C26 tumor bearing mice were injected with 1.5 MBq (40 μCi) [F-18]FB-[R^8,15,21, L^17]-VIP and placed in the central zone of the micro-PET device separately at 5 min, 60 min, and 120 min following injection. They underwent static scanning for 10 min at different points. The original data obtained were transformed into 2D image by Fourier transform and 2D FBP reconstruction.
(§2) Blocking experiment was conducted to explore whether [F-18]FB-[R^8,15,21, L^17]-VIP was receptor-specific. 100 μg of nonlabeled VIP polypeptide mixed with 40 μCi [F-18]FB-[R^8,15,21, L^17]-VIP was injected into each C26 tumor bearing mouse. The imaging experiment with blocking was performed 60 min following injection, using scanning for 10 min and the same procedures and data treatment process as above.

Data set [3] concerns C26 colon carcinoma. As to the kind of experiment: micro-PET imaging in C26 tumor bearing mice. Conditions: micro-PET images, C26 tumor bearing mice. Format: in vivo. Here is the method:
as §1, §2

A short description of data set [4]: tissue distribution test in normal BALB/C mice. In kind it is in vivo. Conditions: 100 μCi tail vein, 5-120 min, γ counter, n = 5 per group. Here is the method: All animal experiments followed the laboratory animal specifications of Zhongshan Hospital, Fudan University. In order to obtain preliminary in vivo pharmacokinetics data of this radiolabeled polypeptide, 100 μL 3.7 MBq (100 μCi) [F-18]FB-[R^8,15,21, L^17]-VIP was injected into each normal BALB/C mouse through tail vein. 20 mice were assigned to 4 groups evenly. At 5, 30, 60, and 120 min following injection, they were sacrificed under anesthesia. Mice in each group were immediately subject to autopsy, where the organs and tissues of interest, including brain, liver, kidneys, heart, lungs, spleen, stomach, small intestine, muscles, bones, and blood, were collected. All the tissue samples were weighed and their counting were measured by γ counter, so that the percent injected dose per each gram of tissue (% ID/g) was derived.

The conditions of data set [5]: cited from earlier work. The text has this: (§3) Since Virgolin initially reported use of ^123I labeled VIP in the imaging study of tumor VIP receptors, several potential ^123I, ^99 mTc, F-18, and ^64Cu labeled VIP analogues have been developed. […] Therefore, our early efforts mainly focused on the structural modification for improving in vivo stability of VIP polypeptide and a series of studie ...

The subject of data set [6] is VIP receptor. The note with it: cited from earlier work.
Source text: as §3

In the case of “^125I-VIP: ^125I labeled vasoactive intestinal peptide”, in data set [1], the “tumor/blood ratio (T/B)” value is given as 0.88 ± 0.16 and the “tumor/muscle ratio (T/M)” value is 0.38 ± 0.56.
For the compound `CC[C@H](C)[C@H](NC(=O)[C@H](CO)NC(=O)[C@H](CC(N)=O)NC(=O)[C@H](CC(C)C)NC(=O)[C@H](Cc1ccc(O)cc1)NC(=O)[C@H](CCCNC(=N)N)NC(=O)[C@H](CCCCNC(=O)c1ccc(F)cc1)NC(=O)[C@@H](NC(=O)[C@H](C)NC(=O)[C@H](CC(C)C)NC(=O)[C@H](CCC(N)=O)NC(=O)[C@H](CCCNC(=N)N)NC(=O)[C@H](CCCNC(=N)N)NC(=O)[C@H](CC(C)C)NC(=O)[C@H](CCCNC(=N)N)NC(=O)[C@@H](NC(=O)[C@H](Cc1ccc(O)cc1)NC(=O)[C@H](CC(N)=O)NC(=O)[C@H](CCCNC(=N)N)NC(=O)[C@@H](NC(=O)[C@H](Cc1ccccc1)NC(=O)[C@@H](NC(=O)[C@H](C)NC(=O)[C@H](CC(=O)O)NC(=O)[C@H](CO)NC(=O)[C@@H](N)Cc1c[nH]cn1)C(C)C)[C@@H](C)O)[C@@H](C)O)C(C)C)C(=O)N[C@@H](CC(C)C)C(=O)N[C@@H](CC(N)=O)C(N)=O` [[F-18]FB-[R^8,15,21, L^17]-VIP] (H-HSDAVFTRNYTRLRRQLAVK(Benzoyl(4-F))RYLNSILN-NH2; N-terminus assumed), the tissue to tissue ratio at 5 min in data set [2] (mouse, iv, 40 uCi, C26 tumor bearing mice, 40 μCi i.v., 5 min after injection, 10 min static scan, read-out: tumor-to-muscle ratio (T/M)) was 1.84. The tissue to tissue ratio at 1 h in data set [2] (mouse, iv, 40 uCi, C26 tumor bearing mice, 40 μCi, unblocked, read-out: tumor-to-muscle ratio (T/M)) was 3.03; in data set [2] (C26 tumor bearing mouse, 40 μCi mixed with 100 μg nonlabeled VIP, read-out: tumor-to-muscle ratio (T/M), blocking experiment), 1.01. Further, the tissue to tissue ratio at 2 h in data set [2] (mouse, iv, 40 uCi, C26 tumor bearing mice, 40 μCi, 120 min after injection, read-out: tumor-to-muscle ratio (T/M)) was 3.74. Moreover, the “passage through the blood-brain barrier” value in data set [3] is on record as “could not pass through the blood-brain barrier”. Besides, in data set [3] (up until 120 min), the “bone absorption (in vivo defluorination stability)” value is on record as “no marked bone absorption”. In addition, in data set [4], the “bone absorption (defluorination stability)” value is “low bone absorption”.
In the case of “H-HSDAVFTRNYTRLRRQLAVKRYLNSILN-NH2 [[R^8,15,21, L^17]-VIP, VIP analogue, 28-residue peptide amide, precursor for F-18 labeling]”, in data set [5], the “in vivo stability in comparison to native VIP” value is recorded as “higher”. The “receptor affinity in comparison to native VIP” value in data set [6] is listed as “higher”.
